# According to ChEMBL document CHEMBL4308851, “Alkyl-guanidine Compounds as Potent Broad-Spectrum Antibacterial Agents: Chemical Library Extension and Biological Characterization” (J Med Chem, 2018):
# Activity calls are given as the source filed them. No cut-off for these calls is given here.
# Tests used:
# [1] = test system: Enterococcus faecalis; experiment: Antibacterial activity against Enterococcus faecalis ATCC 19433 after 18 hrs by microdilution broth method; format: functional; settings: ATCC 19433, 18 h
# [2] = test system: Bacillus spizizenii; experiment: Antibacterial activity against Bacillus subtilis ATCC 6633 after 18 hrs by microdilution broth method; format: functional; settings: ATCC 6633, 18 h
# [3] = test system: Acinetobacter baumannii; experiment: Antibacterial activity against Acinetobacter baumannii ATCC 17978 after 18 hrs by microdilution broth method; format: functional; settings: ATCC 17978, 18 h
# [4] = test system: Escherichia coli; experiment: Antibacterial activity against Escherichia coli CCUG after 18 hrs by microdilution broth method
# [5] = test system: Staphylococcus aureus; experiment: Antibacterial activity against Staphylococcus aureus ATCC 25923 after 18 hrs by microdilution broth method; format: functional; settings: ATCC 25923, 18 h
# [6] = test system: Streptococcus pyogenes; experiment: Antibacterial activity against Streptococcus pyogenes ATCC 12344 after 18 hrs by microdilution broth method; format: functional; settings: ATCC 12344, 18 h
# [7] = test system: Klebsiella pneumoniae; experiment: Antibacterial activity against Klebsiella pneumoniae ATCC […] after 18 hrs by microdilution broth method; format: functional
# [8] = test system: Pseudomonas aeruginosa; experiment: Antibacterial activity against Pseudomonas aeruginosa ATCC 27853 after 18 hrs by microdilution broth method; format: functional; settings: ATCC 27853, 18 h
# [9] = test system: Acinetobacter baumannii; experiment: Antibacterial activity against Acinetobacter baumannii isolate AC-54/97 after 18 hrs by microdilution broth method; format: functional; settings: isolate AC-54/97, 18 h
# [10] = test system: Enterobacter cloacae; experiment: Antibacterial activity against Enterobacter cloacae isolate VA-417/02 after 18 hrs by microdilution broth method; format: functional; settings: isolate VA-417/02, 18 h
# [11] = test system: Klebsiella pneumoniae; experiment: Antibacterial activity against Klebsiella pneumoniae isolate SI-081 after 18 hrs by microdilution broth method; format: functional; settings: isolate SI-081, 18 h
# [12] = test system: Stenotrophomonas maltophilia; experiment: Antibacterial activity against Stenotrophomonas maltophilia isolate 634/08 after 18 hrs by microdilution broth method; format: functional; settings: isolate 634/08, 18 h
# [13] = test system: Burkholderia cepacia; experiment: Antibacterial activity against Burkholderia cepacia isolate SI-R2 after 18 hrs by microdilution broth method; format: functional; settings: isolate SI-R2, 18 h
# [14] = test system: Pseudomonas aeruginosa; experiment: Disruption of inner membrane integrity in Pseudomonas aeruginosa PAO1 ATCC 15692 co-expressing pMP2200::PrrnB plasmid assessed as induction of OPNG conversion at 256 ug/ml measured at 10 mins intervals for 1 hr; format: functional, organism-based
# [15] = test system: Escherichia coli; experiment: Disruption of inner membrane integrity in Escherichia coli MG1655 assessed as induction of […] conversion at 256 ug/ml measured at 10 mins intervals for 1 hr; format: functional, organism-based; settings: K-12 substr. MG1655
# [16] = test system: Acinetobacter baumannii; experiment: Disruption of inner membrane integrity in Acinetobacter baumannii ATCC 19606 co-expressing pMP2200::PrrnB plasmid assessed as induction of […] conversion at 256 ug/ml measured at 10 mins intervals for 1 hr; format: functional, organism-based; settings: ATCC 19606 = CIP 70.34 = JCM 6841
Structure (SMILES),MIC [1] [mg/L],MIC [2] [mg/L],MIC [3] [mg/L],MIC [4] [mg/L],MIC [5] [mg/L],MIC [6] [mg/L],MIC [7] [mg/L],MIC [8] [mg/L],MIC [9] [mg/L],MIC [10] [mg/L],MIC [11] [mg/L],MIC [12] [mg/L],MIC [13] [mg/L],Activity [14],Activity [15],Activity [16]
CN[C@H](CC(C)C)C(=O)N[C@H]1C(=O)N[C@@H](CC(N)=O)C(=O)N[C@H]2C(=O)N[C@H]3C(=O)N[C@H](C(=O)N[C@H](C(=O)O)c4cc(O)cc(O)c4-c4cc3ccc4O)[C@H](O)c3ccc(c(Cl)c3)Oc3cc2cc(c3O[C@@H]2O[C@H](CO)[C@@H](O)[C@H](O)[C@H]2O[C@H]2C[C@](C)(N)[C@H](O)[C@H](C)O2)Oc2ccc(cc2Cl)[C@H]1O [VANCOMYCIN],1,0.5,–,–,–,–,–,–,–,–,–,–,–,–,–,–
N=C(N)NCCCCCCCCN(CCCCCCCCNC(=N)N)C(=O)N(CCCCCCCCNC(=N)NCC1CC1)CCCCCCCCNC(=N)NCC1CC1,8,2,16,4,8,4,4,16,–,–,–,–,–,–,–,–
N=C(NCCCCCCCCN(CCCCCCCCNC(=N)NCC1CC1)C(=O)N(CCCCCCNC(=N)NCC1CC1)CCCCCCNC(=N)NCC1CC1)NCC1CC1,8,4,64,4,2,1,4,128,–,–,–,–,–,–,–,–
CCNC(=N)NCCCCCCCCN(CCCCCCCCNC(=N)NCC)C(=O)N(CCCCCCCCNC(=N)NCC)CCCCCCCCNC(=N)NCC,1,0.5,16,2,0.5,0.25,4,32,8,2,8,32,32,–,–,–
N=C(NCCCCCCCCN(CCCCCCCCNC(=N)NCc1ccccc1)C(=O)N(CCCCCCCCNC(=N)NCc1ccccc1)CCCCCCCCNC(=N)NCc1ccccc1)NCc1ccccc1,4,4,16,4,8,1,4,8,–,–,–,–,–,–,–,–
N=C(N)NCCCCCCCCN(CCCCCCCCNC(=N)NCc1ccccc1)C(=O)N(CCCCCCCCNC(=N)N)CCCCCCCCNC(=N)NCc1ccccc1,2,2,8,4,2,2,2,16,–,4,8,8,16,–,–,–
CCNC(=N)NCCCCCCN(CCCCCCNC(=N)N)C(=O)N(CCCCCCNC(=N)NCC)CCCCCCNC(=N)NCC,64,16,256,64,32,4,128,> 256,–,–,–,–,–,–,–,–
N=C(N)NCCCCCCN(CCCCCCNC(=N)NCC1CC1)C(=O)N(CCCCCCNC(=N)N)CCCCCCNC(=N)NCC1CC1,32,4,128,16,4,2,32,256,–,–,–,–,–,–,–,–
CCCCCCCCCC(=O)N[C@@H](Cc1c[nH]c2ccccc12)C(=O)N[C@H](CC(N)=O)C(=O)N[C@@H](CC(=O)O)C(=O)N[C@@H]1C(=O)NCC(=O)N[C@@H](CCCN)C(=O)N[C@@H](CC(=O)O)C(=O)N[C@H](C)C(=O)N[C@@H](CC(=O)O)C(=O)NCC(=O)N[C@H](CO)C(=O)N[C@@H]([C@H](C)CC(=O)O)C(=O)N[C@@H](CC(=O)c2ccccc2N)C(=O)O[C@@H]1C,1,1,–,–,0.5,0.12,–,–,–,–,–,–,–,–,–,–
CCCCCCCCCCCCOS(=O)(=O)[O-].[Na+],–,–,–,–,–,–,–,–,–,–,–,–,–,Active,Active,Active
N=C(N)NCCCCCCN(CCCCCCNC(=N)NCC1CC1)C(=O)N(CCCCCCNC(=N)NCC1CC1)CCCCCCNC(=N)NCC1CC1,16,4,64,8,4,2,16,128,–,–,–,–,–,–,–,–
CC(C)(C)OC(=O)/N=C(/NCCCCCCCCN(CCCCCCCCN/C(=N/C(=O)OC(C)(C)C)NC(=O)OC(C)(C)C)C(=O)N(CCCCCCCCN/C(=N/C(=O)OC(C)(C)C)N(CC1CC1)C(=O)OC(C)(C)C)CCCCCCCCN/C(=N/C(=O)OC(C)(C)C)N(CC1CC1)C(=O)OC(C)(C)C)NC(=O)OC(C)(C)C,≥ 256,≥ 256,≥ 256,≥ 256,≥ 256,≥ 256,≥ 256,≥ 256,≥ 256,≥ 256,≥ 256,≥ 256,≥ 256,–,–,–
CCNC(=N)NCCCCCCCCN(CCCCCCCCNC(=N)N)C(=O)N(CCCCCCCCNC(=N)N)CCCCCCCCNC(=N)NCC,1,1,16,2,1,0.5,2,16,–,4,4,16,32,–,–,–
CNC(=O)NC(=N)NCCCCCCCCN(CCCCCCCCNC(=N)NC(=O)NC)C(=O)N(CCCCCCCCNC(=N)NCC1CC1)CCCCCCCCNC(=N)NCC1CC1,4,2,8,4,2,2,4,16,–,–,–,–,–,–,–,–
CNC(=N)NCCCCCCCCN(CCCCCCCCNC(=N)N)C(=O)N(CCCCCCCCNC(=N)N)CCCCCCCCNC(=N)NC,1,0.5,8,1,0.5,0.5,4,8,4,4,8,16,32,–,–,–
